Laboratory results reported in patent US20120264735A1 (priority 2009, published 2012).

Biological target: T1, c-Met kinase (recombinant c-Met) (Homo sapiens, UniProt P08581)
T1 construct: 0.27 nM recombinant c-Met
Assay: In vitro kinase assay I (homogeneous time-resolved fluorescence tyrosine kinase assay)
Assay type: biochemical
Procedure, shortened: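 Biotinylated peptide (0.5 μM) phosphorylated by 0.2 nM recombinant c-Met with 50 μM MgATP, 60 min at room temperature, pH 7.4, 5% DMSO. EDTA stop; HTRF read with Eu-anti-phosphotyrosine antibody and streptavidin-APC. IC50 from 4-parameter logistic fit.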

T1 sequence (P08581 25-1390): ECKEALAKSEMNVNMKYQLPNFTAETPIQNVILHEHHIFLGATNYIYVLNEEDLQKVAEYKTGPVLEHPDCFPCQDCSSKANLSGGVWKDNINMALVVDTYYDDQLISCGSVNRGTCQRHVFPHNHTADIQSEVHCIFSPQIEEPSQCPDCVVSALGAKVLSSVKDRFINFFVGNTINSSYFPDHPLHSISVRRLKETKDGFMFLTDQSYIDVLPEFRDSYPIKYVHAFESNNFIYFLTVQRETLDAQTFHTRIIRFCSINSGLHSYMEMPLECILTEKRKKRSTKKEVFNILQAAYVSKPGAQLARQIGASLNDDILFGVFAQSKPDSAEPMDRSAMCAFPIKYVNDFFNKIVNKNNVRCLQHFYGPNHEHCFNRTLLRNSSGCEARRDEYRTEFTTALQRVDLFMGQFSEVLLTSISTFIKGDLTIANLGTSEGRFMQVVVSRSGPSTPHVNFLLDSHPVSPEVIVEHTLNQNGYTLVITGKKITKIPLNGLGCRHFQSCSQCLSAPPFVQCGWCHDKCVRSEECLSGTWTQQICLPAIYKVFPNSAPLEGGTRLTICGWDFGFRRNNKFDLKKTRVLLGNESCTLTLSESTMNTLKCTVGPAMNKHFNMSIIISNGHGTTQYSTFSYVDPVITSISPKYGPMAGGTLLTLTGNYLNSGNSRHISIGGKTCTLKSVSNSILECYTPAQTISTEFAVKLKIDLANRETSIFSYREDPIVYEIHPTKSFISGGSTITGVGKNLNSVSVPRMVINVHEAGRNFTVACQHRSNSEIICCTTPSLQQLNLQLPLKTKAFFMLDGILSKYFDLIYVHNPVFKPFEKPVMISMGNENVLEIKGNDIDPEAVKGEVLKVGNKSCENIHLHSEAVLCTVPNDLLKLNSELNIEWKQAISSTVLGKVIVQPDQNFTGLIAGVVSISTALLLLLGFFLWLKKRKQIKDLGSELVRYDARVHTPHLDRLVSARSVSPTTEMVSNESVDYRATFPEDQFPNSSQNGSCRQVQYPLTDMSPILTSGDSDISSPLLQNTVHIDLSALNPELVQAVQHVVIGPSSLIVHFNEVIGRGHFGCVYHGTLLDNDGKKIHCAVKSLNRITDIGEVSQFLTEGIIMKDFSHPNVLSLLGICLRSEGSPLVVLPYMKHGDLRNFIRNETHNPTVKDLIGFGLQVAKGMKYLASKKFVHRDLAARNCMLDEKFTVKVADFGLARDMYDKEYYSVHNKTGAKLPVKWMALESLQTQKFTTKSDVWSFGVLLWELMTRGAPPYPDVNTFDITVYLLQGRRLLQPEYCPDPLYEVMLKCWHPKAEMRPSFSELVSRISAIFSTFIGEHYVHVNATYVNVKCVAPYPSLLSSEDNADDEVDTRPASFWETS

Compound	IC50 [nM]
Cn1cc(-n2ccc(=O)c(Cc3cccc(-c4ncc(OCc5ccccc5)cn4)c3)n2)cn1 [Example 67, 3-{3-[5-(benzyloxy)pyrimidin-2-yl]benzyl}-1-(1-methyl-1H-pyrazol-4-yl)pyridazin-4(1H)-one]	< 100
Cn1cc(-n2ccc(=O)c(Cc3cccc(-c4ncc(C(=O)NCCN5CCOCC5)cn4)c3)n2)cn1 [Example 477, 2-(3-{[1-(1-methyl-1H-pyrazol-4-yl)-4-oxo-1,4-dihydro-pyridazin-3-yl]methyl}phenyl)-N-(2-morpholin-4-ylethyl)pyrimidine-5-carboxamide]	< 100
CCCC(c1cccc(-c2ncc(OCC)cn2)c1)c1nn(-c2cnn(C)c2)ccc1=O (single isomer, unassigned) [Example 207, 3-{(1S or R)-1-[3-(5-ethoxypyrimidin-2-yl)phenyl]butyl}-1-(1-methyl-1H-pyrazol-4-yl)pyridazin-4(1H)-one]	100 to 1000
Cn1cc(-n2ccc(=O)c(Cc3cccc(NC(=O)OCCOC4CCCCC4)c3)n2)cn1 [Example 577, 2-(cyclohexyloxy)ethyl (3-{[1-(1-methyl-1H-pyrazol-4-yl)-4-oxo-1,4-dihydropyridazin-3-yl]methyl}phenyl)carbamate]	< 100
CCOC(=O)Nc1cccc(Cc2nn(-c3cnn(CC(F)(F)F)c3)ccc2=O)c1 [Example 111, ethyl [3-({4-oxo-1-[1-(2,2,2-trifluoroethyl)-1H-pyrazol-4-yl]-1,4-dihydropyridazin-3-yl}methyl)phenyl]carbamate]	< 100
CCn1cc(-n2ccc(=O)c(C(C)c3cccc(-c4ncc(OCC5(C)COC5)cn4)c3)n2)cn1 (single isomer, unassigned) [Example 304, 1-(1-ethyl-1H-pyrazol-4-yl)-3-[(1R or S)-1-(3-{5-[(3-methyloxetan-3-yl)methoxy]pyrimidin-2-yl}phenyl)ethyl]pyridazin-4(1H)-one]	< 100
CCOc1cnc(-c2cccc(Cc3nn(-c4cc(F)c(Br)c(F)c4)ccc3=O)c2)nc1 [Example 147, 1-(4-bromo-3,5-difluorophenyl)-3-[3-(5-ethoxypyrimidin-2-yl)benzyl]pyridazin-4(1H)-one]	< 100
O=C(Nc1cccc(Cc2nn(-c3cc(F)c(F)c(F)c3)ccc2=O)c1)OCCN1CCCC1=O [Example 549, 2-(2-oxopyrrolidin-1-yl)ethyl (3-{[4-oxo-1-(3,4,5-trifluorophenyl)-1,4-dihydropyridazin-3-yl]methyl}phenyl)carbamate]	< 100
CCCOC(=O)Nc1cccc(Cc2nn(-c3cnn(CCO)c3)ccc2=O)c1 [Example 644, propyl [3-({1-[1-(2-hydroxyethyl)-1H-pyrazol-4-yl]-4-oxo-1,4-dihydropyridazin-3-yl}methyl)phenyl] carbamate]	< 100
Cn1cc(-n2ccc(=O)c(Cc3cccc(NC(=O)OCCN4CCC(F)(F)C4)c3)n2)cn1 [Example 524, 2-(3,3-difluoropyrrolidin-1-yl)ethyl (3-{[1-(1-methyl-1H-pyrazol-4-yl)-4-oxo-1,4-dihydropyridazin-3-yl]methyl}phenyl)carbamate]	< 100
CCOC(=O)Nc1cccc(Cc2nn(-c3cnn(CCO)c3)ccc2=O)c1 [Example 643, Ethyl [3-({1-[1-(2-hydroxyethyl)-1H-pyrazol-4-yl]-4-oxo-1,4-dihydropyridazin-3-yl}methyl)phenyl]carbamate]	< 100
O=c1ccn(-c2ccc(F)c(F)c2)nc1Cc1cccc(-c2ncc(OCC3COCCO3)cn2)c1 (single isomer, unassigned) [Example 346, 1-(3,4-difluorophenyl)-3-(3-{5-[(2S or R-1,4-dioxan-2-ylmethoxy]pyrimidin-2-yl}benzyl)pyridazin-4(1H)-one]	< 100
CC(c1cccc(-c2nccc(C(C)(C)O)n2)c1)c1nn(-c2cnn(C)c2)ccc1=O (single isomer, unassigned) [Example 694, 3-[(1R or S)-1-{3-[4-(2-hydroxypropan-2-yl)pyrimidin-2-yl]phenyl}ethyl]-1-(1-methyl-1H-pyrazol-4-yl)pyridazin-4(1H)-one]	100 to 1000
N#Cc1ccc(-n2ccc(=O)c(Cc3cccc(NC(=O)OCC4CCOC4)c3)n2)cc1 (racemic) [Example 139, rac-tetrahydrofuran-3-ylmethyl (3-{[1-(4-cyanophenyl)-4-oxo-1,4-dihydropyridazin-3-yl]methyl}phenyl)carbamate]	< 100
CCOC(=O)Nc1cccc(Cc2nn(-c3ccn(C)n3)ccc2=O)c1 [Example 25, ethyl (3-{[1-(1-methyl-1H-pyrazol-3-yl)-4-oxo-1,4-dihydropyridazin-3-yl]methyl}phenyl)carbamate]	100 to 1000
CCn1cc(-n2ccc(=O)c(C(C)c3cccc(-c4ncc(OCc5cc(C)no5)cn4)c3)n2)cn1 (single isomer, unassigned) [Example 301, 1-(1-ethyl-1H-pyrazol-4-yl)-3-[(1R or S)-1-(3-{5-[(3-methylisoxazol-5-yl)methoxy]pyrimidin-2-yl}phenyl)ethyl]pyridazin-4(1H)-one]	< 100
COCCCOc1cnc(-c2cccc(Cc3nn(-c4cc(F)c(F)c(F)c4)ccc3=O)c2)nc1 [Example 324, 3-{3-[5-(3-methoxypropoxy)pyrimidin-2-yl]benzyl}-1-(3,4,5-trifluorophenyl)pyridazin-4(1H)-one]	< 100
O=c1ccn(-c2cc(F)c(F)c(F)c2)nc1Cc1ccc2ncnn2c1 [Example 10, 3-([1,2,4]triazolo[1,5-a]pyridin-6-ylmethyl)-1-(3,4,5-trifluorophenyl)pyridazin-4(1H)-one]	1000 to 3000
COc1cnc(-c2cccc(C(CO)c3nn(-c4cnn(C)c4)ccc3=O)c2)nc1 (racemic) [Example 254, rac-3-{2-Hydroxy-1-[3-(5-methoxypyrimidin-2-yl)phenyl]ethyl}-1-(1-methyl-1H-pyrazol-4-yl)pyridazin-4(1H)-one]	1000 to 3000
Cc1cc(COc2cnc(-c3cccc(Cc4nn(-c5cnn(C)c5)ccc4=O)c3)nc2)on1 [Example 286, 3-(3-{5-[(3-methylisoxazol-5-yl)methoxy]pyrimidin-2-yl}benzyl)-1-(1-methyl-1H-pyrazol-4-yl)pyridazin-4(1H)-one]	< 100
COCCOc1cnc(-c2cccc(Cc3nn(-c4cnn(C)c4F)cc(F)c3=O)c2)nc1 [Example 751, 5-Fluoro-1-(5-fluoro-1-methyl-1H-pyrazol-4-yl)-3-{3-[5-(2-methoxyethoxy)pyrimidin-2-yl]benzyl}pyridazin-4(1h)-one]	< 100

Now from value to compound:

IC50 [nM]	Compound
1000 to 3000	Cc1cnc(-c2cccc(Cc3nn(-c4cnn(C)c4)ccc3=O)c2)[nH]1 [Example 672, 3-[3-(5-Methyl-1H-imidazol-2-yl)benzyl]-1-(1-methyl-1H-pyrazol-4-yl)pyridazin-4(1H)-one]
1000 to 3000	Cn1cc(-n2ccc(=O)c(Cc3cccc4c3CNC4=O)n2)cn1 [Example 45, 4-{[1-(1-methyl-1H-pyrazol-4-yl)-4-oxo-1,4-dihydropyridazin-3-yl]methyl}-2,3-dihydro-1H-isoindol-1-one]
< 100	CCOCCNc1cnc(-c2cccc(Cc3nn(-c4cnn(C)c4)ccc3=O)c2)nc1 [Example 454, 3-(3-{5-[(2-ethoxyethyl)amino]pyrimidin-2-yl}benzyl)-1-(1-methyl-1H-pyrazol-4-yl)pyridazin-4(1H)-one]
100 to 1000	Cn1cc(-n2ccc(=O)c(Cc3cccc(N4CCCC4=O)c3)n2)cn1 [Example 636, 1-(1-Methyl-1H-pyrazol-4-yl)-3-[3-(2-oxopyrrolidin-1-yl)benzyl]pyridazin-4(1H)-one]
< 100	CC(C)COC(=O)Nc1cccc(Cc2nn(-c3cnn(C)c3)ccc2=O)c1 [Example 53, 2-methylpropyl (3-{[1-(1-methyl-1H-pyrazol-4-yl)-4-oxo-1,4-dihydropyridazin-3-yl]methyl}phenyl)carbamate]
< 100	CCCCOC(=O)Nc1cccc(Cc2nn(-c3cnn(C)c3)ccc2=O)c1 [Example 500, Butyl (3-{[1-(1-methyl-1H-pyrazol-4-yl)-4-oxo-1,4-dihydropyridazin-3-yl]methyl}phenyl)carbamate]
< 100	CCOc1cnc(-c2cccc(Cc3nn(-c4cnn(C)c4)ccc3=O)c2)nc1C [Example 177, 3-[3-(5-ethoxy-4-methylpyrimidin-2-yl)benzyl]-1-(1-methyl-1H-pyrazol-4-yl)pyridazin-4(1H)-one]
< 100	C[C@@H](O)[C@@H](C)Oc1cnc(-c2cccc(Cc3nn(-c4cnn(C)c4)ccc3=O)c2)nc1 (single isomer, unassigned) [Example 374]
< 100	Cn1cc(-n2ccc(=O)c(Cc3cccc(-c4ncc(N5CCCC5)cn4)c3)n2)cn1 [Example 470, 1-(1-methyl-1H-pyrazol-4-yl)-3-[3-(5-pyrrolidin-1-ylpyrimidin-2-yl)benzyl]pyridazin-4(1H)-one]
< 100	CCCNC(=O)Nc1cccc(Cc2nn(-c3cnn(C)c3)ccc2=O)c1 [Example 489, 1-(3-{[1-(1-methyl-1H-pyrazol-4-yl)-4-oxo-1,4-dihydropyridazin-3-yl]methyl}phenyl)-3-propylurea]
< 100	CCCOC(=O)Nc1cccc(Cc2nn(-c3cnn(C)c3)ccc2=O)c1 [Example 52, propyl (3-{[1-(1-methyl-1H-pyrazol-4-yl)-4-oxo-1,4-dihydropyridazin-3-yl]methyl}phenyl)carbamate]
100 to 1000	Cn1cc(-n2ccc(=O)c(Cc3cccc(-c4nccs4)c3)n2)cn1 [Example 20, 1-(1-methyl-1H-pyrazol-4-yl)-3-[3-(1,3-thiazol-2-yl)benzyl]pyridazin-4(1H)-one]
< 100	CC1CCC(=O)N1[C@@H](C)COC(=O)Nc1cccc(Cc2nn(-c3cnn(C)c3)ccc2=O)c1 (single isomer, unassigned) [Example 610, (2S)-2-[(2R or S)-2-methyl-5-oxopyrrolidin-1-yl]propyl (3-{[1-(1-methyl-1H-pyrazol-4-yl)-4-oxo-1,4-dihydropyridazin-3-yl]methyl}phenyl)carbamate]
